In patent publication US8846933B2, “N-link hydroxamic acid derivatives useful as antibacterial agents” (Pfizer Inc., priority 2009, dated 2014):

Experiments:
[1] = system: Escherichia coli EC-1: VOGEL, mouse virulent; assay: MIC determination (CLSI), strain EC-1; assay type: cell-based; details: strain EC-1, unit assumed
Procedure: (§1) The in vitro antibacterial activity of compounds described in the Examples was evaluated by minimum inhibitory concentration (MIC) testing according to Clinical and Laboratory Standards Institute (CLSI, formerly NCCLS) guidelines. See: Clinical and Laboratory Standards Institute. Methods for Dilution Antimicrobial Susceptibility Tests for Bacteria that Grow Aerobically; Approved Standard-Seventh Edition. CLSI document M7-A7 [ISBN 1-56238-587-9]. Clinical and Laboratory Standards Institute, 940 West Valley Road, Suite 1400, Wayne, Pa. 19087-1898 USA, 2006; also Clinical and Laboratory Standards Institute. Performance Standards for Antimicrobial Susceptibility Testing; Eighteenth Informational Supplement. CLSI document M100-S18 [ISBN1-56238-653-0].Clinical and Laboratory Standards Institute.
(§2) The following bacterial strains were used in these MIC determinations:
3) Escherichia coli EC-1: VOGEL, mouse virulent labeled as EC-1 in Tables 4 and 5;

[2] = system: Pseudomonas aeruginosa UI-18: Wild-type (PA-7); assay: MIC determination (CLSI), strain PA-7; assay type: cell-based; details: strain PA-7, unit assumed
Procedure: as §1, §2
1) Pseudomonas aeruginosa UI-18: Wild-type, labeled as PA-7 in Tables 4, and 5;

[3] = generated in the same manner as in Table 4

Compound | EC-1 (MIC) [1, 3] | PA-7 (MIC) [2, 3] | EC-1 (MIC) [1] | PA-7 (MIC) [2]
CC(C)Oc1ncccc1-c1ccn(CCC(C)(C(=O)NO)S(C)(=O)=O)c(=O)c1 (centres unmarked) [Example 168, N-hydroxy-4-(2-isopropoxy-2′-oxo-3,4′-bipyridin-1′(2′H)-yl)-2-methyl-2-(methylsulfonyl)butanamide] | > 64 µg/mL | > 64 µg/mL |  | 
CC(CCn1ccc(-c2ccc(OCCCc3ccncc3)cc2)cc1=O)(C(=O)NO)S(C)(=O)=O (centres unmarked) [Example 89] | 0.25 µg/mL | 2 µg/mL |  | 
Cc1ccc(F)cc1-c1ccn(CCC(C)(C(=O)NO)S(C)(=O)=O)c(=O)c1 (centres unmarked) [Example 171, 4-[4-(5-fluoro-2-methylphenyl)-2-oxopyridin-1(2H)-yl]-N-hydroxy-2-methyl-2-(methylsulfonyl)butanamide] | 64 µg/mL | 32 µg/mL |  | 
C[C@@](CCn1ccc(-c2ccc3c(c2)OCCCO3)cc1=O)(C(=O)NO)S(C)(=O)=O [Example 330, (2R)-4-[4-(3,4-dihydro-2H-1,5-benzodioxepin-7-yl)-2-oxopyridin-1(2H)-yl]-N-hydroxy-2-methyl-2-(methylsulfonyl)butanamide] |  |  | 0.5 µg/mL | 4 µg/mL
Cc1nn(-c2ccc(-c3ccn(CC[C@](C)(C(=O)NO)S(C)(=O)=O)c(=O)c3)cc2)nc1C [Example 373, (2R)-4-{4-[4-(4,5-dimethyl-2H-1,2,3-triazol-2-yl)phenyl]-2-oxopyridin-1(2H)-yl}-N-hydroxy-2-methyl-2-(methylsulfonyl)butanamide] |  |  | 0.125 µg/mL | 1 µg/mL
Cc1cc(-c2ccn(CC[C@](C)(C(=O)NO)S(C)(=O)=O)c(=O)c2)ccc1C#N [Example 467] |  |  | 4 µg/mL | 2 µg/mL
CC(CCn1ccc(-c2ccc(C#N)s2)cc1=O)(C(=O)NO)S(C)(=O)=O (centres unmarked) [Example 149, 4-[4-(5-cyano-2-thienyl)-2-oxopyridin-1(2H)-yl]-N-hydroxy-2-methyl-2-(methylsulfonyl)butanamide] | 16 µg/mL | 16 µg/mL |  | 
Cc1c(-c2ccc(OC(F)F)cc2)ccn(CC[C@](C)(C(=O)NO)S(C)(=O)=O)c1=O [Example 399, (2R)-4-{4-[4-(difluoromethoxy)phenyl]-3-methyl-2-oxopyridin-1(2H)-yl}-N-hydroxy-2-methyl-2-(methylsulfonyl)butanamide] |  |  | 0.5 µg/mL | 1 µg/mL
COc1ccc(Oc2ccc(-c3ccn(CCC(C)(C(=O)NO)S(C)(=O)=O)c(=O)c3)cc2)cc1 (centres unmarked) [Example 139, N-hydroxy-4-{4-[4-(4-methoxyphenoxy)phenyl]-2-oxopyridin-1(2H)-yl}-2-methyl-2-(methylsulfonyl)butanamide] | 0.125 µg/mL | 8 µg/mL |  | 
C[C@@](CCn1ccc(-c2ccc(OCC#N)cc2)cc1=O)(C(=O)NO)S(C)(=O)=O [Example 333, (2R)-4-{4-[4-(cyanomethoxy)phenyl]-2-oxopyridin-1(2H)-yl}-N-hydroxy-2-methyl-2-(methylsulfonyl)butanamide] |  |  | 16 µg/mL | 8 µg/mL
CCOc1ncccc1-c1ccn(CCC(C)(C(=O)NO)S(C)(=O)=O)c(=O)c1 (centres unmarked) [Example 205, 4-(2-ethoxy-2′-oxo-3,4′-bipyridin-1′(2′H)-yl)-N-hydroxy-2-methyl-2-(methylsulfonyl)butanamide] |  |  | > 64 µg/mL | > 64 µg/mL
COc1ccc(-c2ccn(CC[C@](C)(C(=O)NO)S(C)(=O)=O)c(=O)c2)cc1F [Example 317, (2R)-4-[4-(3-fluoro-4-methoxyphenyl)-2-oxopyridin-1(2H)-yl]-N-hydroxy-2-methyl-2-(methylsulfonyl)butanamide] |  |  | 2 µg/mL | 1 µg/mL
Cc1ccc(-c2ccn(CC[C@](C)(C(=O)NO)S(C)(=O)=O)c(=O)c2)cc1F [Example 322, (2R)-4-[4-(3-fluoro-4-methylphenyl)-2-oxopyridin-1(2H)-yl]-N-hydroxy-2-methyl-2-(methylsulfonyl)butanamide] |  |  | 0.5 µg/mL | 0.5 µg/mL
CC(CCn1ccc(-c2cccc(N)c2)cc1=O)(C(=O)NO)S(C)(=O)=O (centres unmarked) [Example 110, 4-[4-(3-aminophenyl)-2-oxopyridin-1(2H)-yl]-N-hydroxy-2-methyl-2-(methylsulfonyl)butanamide] | > 64 µg/mL | 64 µg/mL |  | 
CC(C)(O)Cc1cccc(-c2ccn(CCC(C)(C(=O)NO)S(C)(=O)=O)c(=O)c2)c1 (centres unmarked) [Example 262, N-hydroxy-4-{4-[3-(2-hydroxy-2-methylpropyl)phenyl]-2-oxopyridin-1(2H)-yl}-2-methyl-2-(methylsulfonyl)butanamide] |  |  | 64 µg/mL | > 64 µg/mL
CC(CCn1ccc(-c2ccc3cc(CO)ccc3c2)cc1=O)(C(=O)NO)S(C)(=O)=O (centres unmarked) [Example 309, N-hydroxy-4-{4-[6-(hydroxymethyl)-2-naphthyl]-2-oxopyridin-1(2H)-yl}-2-methyl-2-(methylsulfonyl)butanamide] |  |  | 1 µg/mL | 4 µg/mL

Compound | EC-1 (MIC) [1, 3] | PA-7 (MIC) [2, 3] | EC-1 (MIC) [1] | PA-7 (MIC) [2]
CC(CCn1ccc(-c2ccc(OCCCN3CCC(F)(F)C3)cc2)cc1=O)(C(=O)NO)S(C)(=O)=O (centres unmarked) [Example 93, 4-[4-{4-[3-(3,3-difluoropyrrolidin-1-yl)propoxy]phenyl}-2-oxopyridin-1(2H)-yl]-N-hydroxy-2-methyl-2-(methylsulfonyl)butanamide] | 1 µg/mL | 8 µg/mL |  | 
COc1cccc(-c2ccn(CCC(C)(C(=O)NO)S(C)(=O)=O)c(=O)c2)c1F (centres unmarked) [Example 90] | 0.5 µg/mL | 2 µg/mL |  | 
Cc1ccnc2ccc(-c3ccn(CCC(C)(C(=O)NO)S(C)(=O)=O)c(=O)c3)cc12 (centres unmarked) [Example 302, N-hydroxy-2-methyl-4-[4-(4-methylquinolin-6-yl)-2-oxopyridin-1(2H)-yl]-2-(methylsulfonyl)butanamide] |  |  | 64 µg/mL | 16 µg/mL
CC(CCn1ccc(-c2cc(F)ccc2O)cc1=O)(C(=O)NO)S(C)(=O)=O (centres unmarked) [Example 117, 4-[4-(5-fluoro-2-hydroxyphenyl)-2-oxopyridin-1(2H)-yl]-N-hydroxy-2-methyl-2-(methylsulfonyl)butanamide] | > 64 µg/mL | > 64 µg/mL |  | 
CC(CCn1ccc(-c2ccc(OCC3CCCCC3)nc2)cc1=O)(C(=O)NO)S(C)(=O)=O (centres unmarked) [Example 181, 4-[6-(cyclohexylmethoxy)-2′-oxo-3,4′-bipyridin-1′(2′H)-yl]-N-hydroxy-2-methyl-2-(methylsulfonyl)butanamide] | 0.125 µg/mL | 4 µg/mL |  | 
CC1(O)CCC(Oc2ccc(-c3ccn(CC[C@](C)(C(=O)NO)S(C)(=O)=O)c(=O)c3)c(F)c2)CC1 (stereo partly drawn) [Example 326, (2R)-4-[4-{2-fluoro-4-[(4-hydroxy-4-methylcyclohexyl)oxy]phenyl}-2-oxopyridin-1(2H)-yl]-N-hydroxy-2-methyl-2-(methylsulfonyl)butanamide] |  |  | 0.5 µg/mL | 4 µg/mL
COCCc1cccc(-c2ccn(CC[C@](C)(C(=O)NO)S(C)(=O)=O)c(=O)c2)c1 [Example 470] |  |  | 16 µg/mL | 32 µg/mL
CC(=O)Nc1cccc(-c2ccn(CCC(C)(C(=O)NO)S(C)(=O)=O)c(=O)c2)c1 (centres unmarked) [Example 133, 4-[4-(3-acetamidophenyl)-2-oxopyridin-1(2H)-yl]-N-hydroxy-2-methyl-2-(methylsulfonyl)butanamide] | > 64 µg/mL | > 64 µg/mL |  | 
C[C@@](CCn1ccc(-c2ccc3c(c2)C(=O)OC3)cc1=O)(C(=O)NO)S(C)(=O)=O [Example 486] |  |  | > 64 µg/mL | > 64 µg/mL
C[C@@](CCn1ccc(-c2ccc(Oc3ncccc3C#N)cc2)cc1=O)(C(=O)NO)S(C)(=O)=O [Example 427, (2R)-4-[4-{4-[(3-cyanopyridin-2-yl)oxy]phenyl}-2-oxopyridin-1(2H)-yl]-N-hydroxy-2-methyl-2-(methylsulfonyl)butanamide] |  |  | 2 µg/mL | 2 µg/mL
CC(CCn1ccc(-c2cccc(C(F)(F)F)c2)cc1=O)(C(=O)NO)S(C)(=O)=O (centres unmarked) [Example 143, N-hydroxy-2-methyl-2-(methylsulfonyl)-4-{2-oxo-4-[3-(trifluoromethyl)phenyl]pyridin-1(2H)-yl}butanamide] | 4 µg/mL | 8 µg/mL |  | 
CCOc1ncc(-c2ccn(CC[C@](C)(C(=O)NO)S(C)(=O)=O)c(=O)c2)cn1 [Example 404, (2R)-4-[4-(2-ethoxypyrimidin-5-yl)-2-oxopyridin-1(2H)-yl]-N-hydroxy-2-methyl-2-(methylsulfonyl)butanamide] |  |  | > 64 µg/mL | > 64 µg/mL
CC(CCn1ccc(-c2ccc(-c3cccnc3)c(F)c2)cc1=O)(C(=O)NO)S(C)(=O)=O (centres unmarked) [Example 297, 4-[4-(3-fluoro-4-pyridin-3-ylphenyl)-2-oxopyridin-1(2H)-yl]-N-hydroxy-2-methyl-2-(methylsulfonyl)butanamide] |  |  | 1 µg/mL | 2 µg/mL
CC(CCn1ccc(-c2ccc(OCCCCO)c(F)c2)cc1=O)(C(=O)NO)S(C)(=O)=O (centres unmarked) [Example 240, 4-{4-[3-fluoro-4-(4-hydroxybutoxy)phenyl]-2-oxopyridin-1(2H)-yl}-N-hydroxy-2-methyl-2-(methylsulfonyl)butanamide] |  |  | 1 µg/mL | 4 µg/mL
CC(CCn1ccc(-c2ccc(OCCCCCN3CCOCC3)cc2)cc1=O)(C(=O)NO)S(C)(=O)=O (centres unmarked) [Example 277, N-hydroxy-2-methyl-2-(methylsulfonyl)-4-[4-{4-[(5-morpholin-4-ylpentyl)oxy]phenyl}-2-oxopyridin-1(2H)-yl]butanamide] |  |  | 1 µg/mL | 4 µg/mL
